Columns and labels:
[1] = tested on: BT-474 human mammary tumor cells; test: Cytotoxicity on BT-474 cells, MTT; type: cell-based; details: BT-474, MTT, 48 h; for Mean LogIC50 (±SEM): log of IC50 in μM; for IC50: Homo sapiens, read-out: IC50
Protocol: Cellular viability is measured by three different methods. For the first method, MTT labeling is carried out at 48 hours. This test is based on the use of the tetrazolium salt MTT (3-(4,5-dimethylthiazol-2-yl)-2,5-diphenyltetrazolium bromide). The tetrazolium is reduced by mitochondrial succinate dehydrogenase of active living cells, to formazan, a precipitate of a violet color. The quantity of precipitate formed is proportional to the quantity of living cells but also to the metabolic activity of each cell. […] After 48 hours, the medium is aspirated, and the cells are incubated with MTT (0.5 mg/ml in culture medium) for about 3 hours. The MTT solution is aspirated and the violet crystals are dissolved in dimethylsulfoxide (DMSO). The OD (optical density) is measured at 550 nm. The percentage viability is then determined in each well relative to the CTL and the IC50 (concentration for which there are still 50% of living cells) is determined for each molecule with Prism software using the nonlinear regression straight line (log(inhibitor) vs. Response).
The cellular viability tests were also carried out on BT-474 human mammary tumor cells (characterized as being positive triples HER2+, ER+, PR+). The BT-474 cells are in a cell culture medium identical to the preceding example and are seeded in 24-well plates at 70 000 cells per well, for determination of cellular viability using trypan blue, or in 96-well plates at 13 000 cells per well for determination of cellular viability using the MTT or LDH assay. After 96 hours (h) of culture in normal conditions, i.e. in an incubator at a temperature of 37° C. at 5% CO2, the BT-474 cells are treated for 48 h with DX101, DX107, and DX113 at 100 nM, 1 μM, 2.5 μM and 10 μM. A control is also carried out using the protocol described above but without treatment with the molecules DX101, DX107, DX113, DX117, DX119, DX121 or DX131.
After trypsin digestion for 10 minutes at 37° C., cell survival was quantified, also by a trypan blue assay with automatic counting with the Biorad TC20 equipment (TC20™ Automated Cell Counter). The trypan blue assay is based on the cell membrane integrity, which is broken in the dead cells. Trypan blue stains the dead cells blue. The Biorad TC20 cell counter counts the proportion of blue cells and non-blue cells, relative to the cell percentages. The percentage viability is then determined in each well relative to the untreated cells and the IC50 is determined as explained in the preceding example. The percentage viability of the BT-474 cells was determined using the MTT and LDH assay, carried out as described in the preceding example.

[2] = tested on: Neuro2a cells; test: Cytotoxicity on Neuro2a cells, trypan blue assay; type: cell-based, murine; details: 48 h; for percentage of live cells compared to the control group: 100 nM
Protocol: For this experiment, a cell culture medium was prepared. The culture medium consists of a Dulbecco's Modified Eagle Medium (DMEM) marketed by Westburg under the reference LO BE12-604F), comprising 4.5 g/L glucose with L-glutamine, to which 10% of fetal calf serum (FCS) is added. Neuro2a cells (murine neuroblastoma) were introduced into this culture medium.
24-well plates were seeded with 10000 Neuro2a cells per well. After culture for 72 hours (h) in normal conditions, i.e. in an incubator at a temperature of 37° C. at 5% CO2, the Neuro2a cells were treated for 48 h with 5α-hydroxy-6β-[2-(1H-imidazol-4-yl)-ethylamino]-cholestan-3β-yl-propionate and 5α-hydroxy-6β-[2-(1H-imidazol-4-yl)-ethylamino]-cholestan-3β-ol at 100 nM, 1 μM and 10 μM. A control (CTL) is also carried out using the protocol described above but without treatment with the aforementioned compounds. Cell survival is quantified by a trypan blue assay with automatic counting with the Biorad TC20 apparatus (TC20™ Automated Cell Counter). The trypan blue assay is based on the integrity of the cell membrane, which is broken in dead cells. The trypan blue stains the dead cells blue. The Biorad TC20 cell counter counts the proportions of blue cells and non-blue cells, relative to the cell percentages.

[3] = Pharmacokinetic study of DX107 (LC/MS in plasma); type: in vivo; details: rat, oral 50 mg/kg, administered compound assayed; for Area under curve: 0-72 h
From the text: The following study is determination by LC/MS in plasma of the various molecules over 3 days (11 measurement points at the end). The graphs are always presented in comparison with DX101, which is the reference. […]

[4] = target: T1, cholesterol epoxide hydrolase (ChEH) (Homo sapiens, UniProt Q15125); test: Activity of cholesterol epoxide hydrolase (ChEH) in MCF-7 cells, [14C]5,6α-EC metabolization by TLC; type: cell-based; details: MCF-7, 1 μM, 24 h, [14C]5,6α-EC 0.6 μM
T1 construct: endogenous in cells; host or cells: MCF-7
From the text: The compounds 5,6α-epoxycholesterol (5,6α-EC) and 5,6β-epoxycholesterol (5,6β-EC) are oxysterols involved in the anticancer pharmacology of tamoxifen, a widely used antitumor drug. They are both metabolized in cholestan-3β,5α,6β-triol (CT) by the enzyme cholesterol-5,6-epoxide hydrolase (ChEH), and CT is metabolized by the enzyme HSD11B2 (11β-hydroxysteroid dehydrogenase 2) to 6-oxo-cholestan-3β,5α-diol (OCDO), an oncosterone tumor promoter.
MCF-7 cells are in a cell culture medium identical to example 20 and are seeded in 6-well plates at 150000 cells per well with 3 wells per treatment condition. 24 h after seeding, the MCF-7 cells are treated with [^14C]5,6α-EC (stock solution 1000×: 0.6 mM; 20 μCi/μmol; final concentration 0.6 μM) alone or in combination with tamoxifen (tam). Tamoxifen is used as positive control of the study compounds. The treatment with the compound according to the invention is carried out at a concentration of 1 μM.
After 24 hours of treatment, the media are collected and lipid extracts are prepared from the cell pellets by extraction with 100 μL of chloroform, 400 μL of methanol and 300 μL of water. The lipid extracts are analyzed by thin-layer chromatography (TLC) using ethyl acetate (EtOAc) as eluent. The analysis is carried out using a plate reader and then by autoradiography.

T1 sequence (Q15125 whole entry): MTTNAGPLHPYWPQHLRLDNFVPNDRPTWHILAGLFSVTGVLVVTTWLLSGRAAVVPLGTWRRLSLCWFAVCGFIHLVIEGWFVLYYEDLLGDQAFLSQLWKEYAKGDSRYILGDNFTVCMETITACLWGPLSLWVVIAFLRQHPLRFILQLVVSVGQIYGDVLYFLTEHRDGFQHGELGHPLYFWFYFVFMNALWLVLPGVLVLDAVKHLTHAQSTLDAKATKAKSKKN

Structure (SMILES)	Mean LogIC50 (±SEM) [1]	IC50 [1] [µM]	percentage of live cells compared to the control group [2]	percentage cell survival relative to the control group ([2]; 1 μM) [%]	percentage cell survival relative to the control group ([2]; 10 μM) [%]	Concentration max [3] [nM]	Area under curve [3]	inhibition of ChEH activity [4]
CC(C)CCC[C@@H](C)[C@H]1CC[C@H]2[C@@H]3C[C@@H](NCCc4c[nH]cn4)[C@@]4(O)C[C@@H](O)CC[C@]4(C)[C@H]3CC[C@]12C [DX101, 5α-hydroxy-6β-[2-(1H-imidazol-4-yl)-ethylamino]-cholestan-3β-ol, reference compound]	0.85 ± 0.02	7.06	unchanged	85.42±4.73	43.25	140	143297	almost total (trace of CT)
CCC(=O)O[C@H]1CC[C@]2(C)[C@H]3CC[C@]4(C)[C@@H]([C@H](C)CCCC(C)C)CC[C@H]4[C@@H]3C[C@@H](NCCc3c[nH]cn3)[C@@]2(O)C1 [DX107, 5α-hydroxy-6β-[2-(1H-imidazol-4-yl)ethylamino]cholestan-3β-yl propionate]	1.08 ± 0.04	11.9	unchanged	84.08±4.09	30.46±5.22	142	89733	inhibition of ChEH is observed relative to the control (1), but it is less than the positive control (2)

— US20240002429A1, “PRODRUG OF 5a-HYDROXY-6ß-[2-(1H-IMIDAZOL-4-YL)ETHYLAMINO]CHOLESTAN-3ß-OL AND PHARMACEUTICAL COMPOSITIONS COMPRISING SAME FOR USE IN THE TREATMENT OF CANCER” (priority 2020, published 2024)
